According to patent US6719976B1, “Peptide-based immunotherapeutic agent for treating allergic diseases” (Meiji Milk Products Co., Ltd., priority 1996, dated 2004):

Columns and labels:
Format in all cases: cell-based, human
[1] = tested on: T cell clones that specifically recognize Cry j 1 or Cry j 2; assay: Identifying T cell epitope peptide recognized by T cell clone; details: 2 μM overlapping peptide; clones from patients
Excerpt: Two patients, Patient B (PB) and Patient J (PJ), who recognize Peptide Nos. 43 and 22 showing a high positivity index in Cry j 1 and three patients, who recognize Peptide Nos. 14, 38, 48, and 69 showing a high positivity index in Cry j 2 were selected from the eighteen patients with cedar pollinosis. Peripheral lymphocytes from these patients with cedar pollinosis were stimulated by Cry j 1 or Cry j 2 to establish T cell clones capable of recognizing Cry j 1 or Cry j 2. The types of HLA class I and class II molecules of the four patients are shown below.
Thirty-five T cell clones in total that specifically recognize Cry j 1 were established from the peripheral lymphocytes derived from PB, and 14 similar T cell clones from PJ. Likewise, 31 T cell clones, 10 T cell clones, and 17 T cell clones in total that specifically recognize Cry j 2 were established from the peripheral lymphocytes derived from PB, PC and PR, respectively. […] A mixture of 5×10^4 cells of the autologous B cell line previously treated with mitomycin C, 2 μM of an overlapping peptide, and 2×10^4 cells of the T cell clone was incubated for 2 days in RPMI-1640 medium supplemented with 0.2 ml of 15% serum on a 96-well micro culture plate. […] After the cells were harvested on a glass filter using a cell harvester, the level of [^3H] thymidine taken up into the cells was determined using a liquid scintillation counter. […]

[2] = tested on: T cell line of each patient specifically recognizing Cry j 1 or Cry j 2; assay: T cell line proliferation response to overlapping peptides ([3H] thymidine uptake); details: mean stimulation index multiplied by frequency of appearance; T cell lines of 18 patients; 2 μM peptide
Procedure: Peripheral lymphocytes from 18 patients with cedar pollinosis were stimulated by cedar pollen allergen Cry j 1 or Cry j 2to establish the T cell line of each patient capable of specifically recognizing the respective allergen.
A mixture of 5×10^4 cells of the autologous B cell line treated with mitomycin C, 2 μM of an overlapping peptide, and 2×10^4 cells of the T cell line was incubated for 2 days in RPMI-1640 medium supplemented with 0.2 ml of 15% serum on a 96-well culture plate. After 0.5 μCi [^3H] thymidine was added to the medium, incubation was continued for a further 18 hours. After the cells were harvested on a glass filter using a cell harvester, the level of [^3H] thymidine taken up into the cells was determined with a liquid scintillation counter. If the stimulation index is 2 or more, we consider that the added peptide is recognized as an antigenic peptide. The stimulation index means a value obtained by dividing the level of [^3H] thymidine taken up into the cells when the peptide was added by the level of [^3H] thymidine taken up into the cells when no peptide was added.
The HLA class II type is considered to vary in every patient. It is thus assumed that a T cell epitope to be recognized would vary depending on the HLA class II type. For this reason, the antigenic peptide that the patients recognized was mapped for the individual patient. […] On the allergen molecule, there are both regions that can be readily recognized and regions that can hardly be recognized, as a T cell epitope, depending on individuals. Moreover, since the proliferation rate of T cells varies depending on a T cell epitope, the epitope map alone makes it difficult to determine what antigenic peptide should be chosen to design the multi-epitope peptide.

T cell clones = assay: Recognizing the T cell epitopes in the multi-epitope peptide C.A.#4 by T cell clones; details: clones PB8-3, PB8-34, PB4-22, PB14-5, PB14-3; C.A.#4 10 μg/ml
Procedure: The antigenic peptide constituting the multi-epitope peptide C.A.#4 obtained in Example 6 was examined to determine if the antigenic peptide actually functions as a T cell epitope.
On a 96-well micro culture plate, a mixture of 5×10^4 cells of the autologous B cell line previously treated with mitomycin C and 2×10^4 cells of the T cell clone was incubated for 2 days in 0.2 ml 15% serum-supplemented RPMI-1640 medium, together with, as an antigen, either 50 μg/ml of Cry j 1 and 2 μg/ml of Cry j 2, each antigenic peptide constituting the multi-epitope peptide C.A.#4 or 10 μg/ml C.A.#4 multi-epitope peptide produced by gene expression. After 0.5 μCi [^3H] thymidine was added to the medium, incubation was continued for a further 16 hours. After the cells were harvested on a glass filter using a cell harvester, the level of [^3H] thymidine taken up into the cells was determined using a liquid scintillation counter.

HLA class II molecules = assay: Identifying the HLA class II restriction molecules (transfected mouse L-cells or haplotype-matched B cell line as antigen-presenting cells); details: 2 μM peptide
Procedure: HLA class II restriction molecules can be identified using the T cell clones whose restriction molecules were identified at the HLA class II locus level and, as antigen-presenting cells, mouse L-cells transfected with each type for DR and B cell line having the same haplotype for DQ or DP.
A mixture of 5×10^4 mouse L cells previously treated with mitomycin C of the B cell line coincident in haplotype; 2 μM of an overlapping peptide; 3 μg/ml of anti-DR, -DQ or -DP monoclonal antibody (manufactured by Becton-Dickinson Inc.); and 2×10^4 cells of the T cell clone was incubated for 2 days in RPMI-1640 medium supplemented with 0.2 ml of 15% serum on a 96-well micro culture plate. After 0.5 μCi [^3H] thymidine was added to the medium, incubation was continued for a further 18 hours. After the cells were harvested on a glass filter using a cell harvester, the level of [^3H] thymidine taken up into the cells was determined using a liquid scintillation counter.

[3] = tested on: Cry j 1-specific T cell line; assay: Reactivity of Cry j 1-specific T cell line; details: from patients with cedar pollinosis
Excerpt: (§1) Two peptides (Cha o 1 #8-Cry j 1 #22 core, Cha o 1 #32-Cry j 1 #22 core) were synthesized by joining Peptide No. 8 (p71-90: […] SEQ ID NO. 11) which is a T cell epitope of hinoki pollen allergen Cha o 1 (Japanese Patent Application N. Hei. 8-15327), or Peptide No. 32 ([…]: […] SEQ ID NO. 12) to Cry j 1 #22 core sequence “FIKRVSNVI”(SEQ ID NO. 7) obtained in Example 14 using a peptide synthesizer (PSSM-8, Shimadzu Seisakusho Ltd.). An RR sequence was inserted between Cha o 1 #8 and Cry j 1 #22 core and between Cha o 1 #32 and Cry j 1 #22 core, that is, Cha o 1 #8-Cry j 1 #22 core (SEQ NO: 4) and Cha o 1 #32-Cry j 1 #22 core (SEQ NO: 5).
(§2) A Cry j 1-specific T cell line and a Cha o 1-specific T cell line were prepared from the patients with cedar pollinosis and hinoki pollinosis, respectively. […] However, these T cell lines all react with the multi-epitope peptide of SEQ NO: 4 and with the multi-epitope peptide of SEQ NO: 5.

[4] = tested on: T cell lines (PJ, PR, PB) and T cell clones (PB 8-3, PB 8-2, PB 9-39); assay: Determination of core sequence of Cry j 1 peptide No. 22 with T cell lines and clones
Excerpt: To determine the minimum amino acid sequence (core) of the Cry j 1 peptide No. 22 (p106-120) necessary for the T cell line and T cell clone proliferation response, one amino acid residue each was deleted from the N and C terminals of this peptide as shown in FIG. 15 to prepare eleven peptides, i.e., p107-120 (p22-2), P108-120 (p22-3), p109-120 (p22-4), p110-120 (p22-5), p111-120 (p22-6), p106-119 (p22-7), p106-118 (p22-8), p106-117 (p22-9), p106-116 (p22-10), and p106-115 (p22-11) using a peptide synthesizer (PSSM-8, manufactured by Shimadzu Seisakusho Ltd.). The T cell lines (PJ, PR, PB) derived from three patients with cedar pollinosis and which react with Cry j 1 Peptide No. 22, p106-120, and the T cell clones (PB 8-3, PB 8-2, PB 9-39) from one of the patients were examined for the reactivity with these 11 peptides in the same manner as in Examples 1 and 2. […] The results reveal that the p106-120 core sequence consists of nine residues of “FIKRVSNVI”(SEQ ID NO. 7) (the nine residues are designated as Cry j 1 #22 core).

[5] = tested on: Cha o 1-specific T cell line; assay: Reactivity of Cha o 1-specific T cell line; details: from patients with hinoki pollinosis
Excerpt: as §1, §2

Substance: KSMKVTVAFNQFGPN [Cry j 1 Peptide No. 43]
- recognition of peptide by allergen-specific T cell clones [1]: recognized
- positivity index [2]: 679
- proliferation response of the T cell clones recognizing the respective epitope (T cell clones): react well
- peptide-presenting restriction molecule (HLA class II molecules): DPA1*0101-DPB1*0501

Substance: Cry j 1 Peptide No. 22: Cry j 1 overlapping peptide No. 22, p106-120 (PCVFIKRVSNVIIHG; Figure 15, p22-1.; listed as Cryptomeria japonica)
- reactivity of Cry j 1-specific T cell line [3]: reacts with
- proliferation response ([4]; one T cell line and T cell clone): did not show any proliferation response
- proliferation response ([4]; two T cell lines (PJ, PB) and two T cell clones (PB 8-2, PB 9-39)): proliferated
- recognition of peptide by allergen-specific T cell clones [1]: recognized
- positivity index [2]: 578
- proliferation response of the T cell clones recognizing the respective epitope (T cell clones): react well
- reactivity of Cha o 1-specific T cell line [5]: does not react with
- peptide-presenting restriction molecule (HLA class II molecules): DRB5*0101
